These results are taken from US10457687B2, “Aminoacid derivatives, a process for their preparation and pharmaceutical compositions containing them” (LES LABORATOIRES SERVIER, priority 2015, dated 2019).

The structures appear in SMILES notation.

Mcl-1 protein, sequence (Q07820 whole entry): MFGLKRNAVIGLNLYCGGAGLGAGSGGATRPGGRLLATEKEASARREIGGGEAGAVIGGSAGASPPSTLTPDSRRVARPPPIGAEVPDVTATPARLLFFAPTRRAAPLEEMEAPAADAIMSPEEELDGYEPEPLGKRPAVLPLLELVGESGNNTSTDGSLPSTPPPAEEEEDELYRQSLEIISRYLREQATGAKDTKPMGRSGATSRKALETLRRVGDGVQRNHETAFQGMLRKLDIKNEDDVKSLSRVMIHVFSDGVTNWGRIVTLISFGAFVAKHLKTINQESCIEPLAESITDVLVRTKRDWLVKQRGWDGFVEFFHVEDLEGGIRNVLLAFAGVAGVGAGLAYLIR

The first assay addresses Mcl-1 protein (Homo sapiens, UniProt Q07820). The assay is described as follows: Inhibition of Mcl-1 by the fluorescence polarisation technique (Method 1 or Method 2). The format is binding. The following applies: fluorescence polarisation, Fluorescein labelled ligand; Method 1 (not underlined) or Method 2 (underlined); read-out: IC50 (μM) Mcl-1 FP. The procedure, abridged: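 Binding measured by FP, with Mcl-1 protein and fluorescein-labelled ligand mixed with compounds in an 11-point series at 5% final DMSO. Method 2 used 10 nM each of protein and ligand in phosphate buffer (20 mM Na2HPO4, 1 mM EDTA, 50 mM NaCl, pH 7.4); Method 1 used 5 nM protein, 1 nM ligand in HEPES buffer (10 mM HEPES, 150 mM NaCl, 0.05% Tween 20, pH 7.4).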
(Fluorescence polarisation rises when a labelled molecule tumbles more slowly, as on binding a larger partner.)
For `CCc1sc2ncnc(NC(Cc3c[nH]c4ccccc34)C(=O)O)c2c1-c1cccc2ccccc12` [Example 185, N-[6-ethyl-(5Sa)-5-(naphthalen-1-yl)thieno[2,3-d]pyrimidin-4-yl]-D-tryptophan], the IC50 amounted to 2.53 µM. `CCc1sc2ncnc(NC(Cc3ccc(F)cc3)C(=O)O)c2c1-c1cccc2ccccc12` [Example 177, N-[6-ethyl-(5Sa)-5-(naphthalen-1-yl)thieno[2,3-d]pyrimidin-4-yl]-4-fluoro-D-phenylalanine]: the IC50 was 0.957 µM. The same measure, in the same setting: as for `CCc1sc2ncnc(NC(Cc3ccccc3)C(=O)O)c2c1-c1ccc(OCCN2CCN(C)CC2)c(Cl)c1C` [Example 62, N-((5Sa)-5-{3-chloro-2-methyl-4-[2-(4-methylpiperazin-1-yl)ethoxy]phenyl}-6-ethylthieno[2,3-d]pyrimidin-4-yl)-D-phenylalanine], the figure is 0.06 µM. For `CCc1sc2ncnc(NC(Cc3ccccc3)C(=O)O)c2c1-c1cccc2c1c(Cl)cn2CCN1CCCC1` [Example 233, N-((5Sa)-5-{3-chloro-1-[2-(pyrrolidin-1-yl)ethyl]-1H-indol-4-yl}-6-ethyl-thieno[2,3-d]pyrimidin-4-yl)-D-phenylalanine], the IC50 was 3.41 µM. Turning to `CC(=O)c1sc2ncnc(NC(Cc3ccccc3)C(=O)O)c2c1-c1cccc2ccccc12` [Example 199, N-[6-acetyl-(5Sa)-5-(naphthalen-1-yl)thieno[2,3-d]pyrimidin-4-yl]-D-phenylalanine], the IC50 is 0.298 µM. Take `CCc1sc2ncnc(NC(Cc3ccccc3)C(=O)O)c2c1-c1cccc2ccn(C)c12` [Example 84, N-[6-ethyl-(5Ra)-5-(1-methyl-1H-indol-7-yl)thieno[2,3-d]pyrimidin-4-yl]-D-phenylalanine]: the IC50 turned out to be 4.02 µM. Regarding `CCc1sc2ncnc(N[C@H](Cc3ccccc3)C(=O)O)c2c1-c1cccc2ccccc12` [Example 79, N-[6-ethyl-5-(naphthalen-1-yl)thieno[2,3-d]pyrimidin-4-yl]-D-phenylalanine], the IC50 is 0.429 µM. With `CCc1sc2ncnc(N[C@H](Cc3ccccc3Cl)C(=O)O)c2c1-c1cccc2ccccc12` [Example 183, 2-chloro-N-[6-ethyl-5-(naphthalen-1-yl)thieno[2,3-d]pyrimidin-4-yl]-D-phenylalanine], the IC50 stood at 2.04 µM.

For the compound `CCOC(=O)C(Cc1ccccc1OCc1ccnc(-c2ccccc2OCCOC)n1)Nc1ncnc2sc(-c3ccc(F)cc3)c(-c3ccc(OCCN(C)C)c(Cl)c3C)c12` [Example 260, ethyl N-[(5Sa)-5-{3-chloro-4-[2-(dimethylamino)ethoxy]-2-methylphenyl}-6-(4-fluorophenyl)thieno[2,3-d]pyrimidin-4-yl]-2-({2-[2-(2-methoxyethoxy)phenyl]pyrimidin-4-yl}methoxy)-D-phenylalaninate], the half-inhibitory concentration (IC50) was found to be 1.98 µM. In the case of `O=C(O)C(Cc1ccccn1)Nc1ncnc2sc(C(F)F)c(-c3cccc4ccccc34)c12` [Example 251, N-[6-(difluoromethyl)-(5Ra)-5-(naphthalen-1-yl)thieno[2,3-d]pyrimidin-4-yl]-3-pyridin-2-yl-D-alanine], the IC50 is 12.1 µM. With `CCc1sc2ncnc(N[C@H](Cc3ccccc3OC)C(=O)O)c2c1-c1cccc2ccccc12` [Example 182, N-[6-ethyl-5-(naphthalen-1-yl)thieno[2,3-d]pyrimidin-4-yl]-2-methoxy-D-phenylalanine], the IC50 came out at 0.407 µM. Consider `CCc1sc2ncnc(NC(Cc3ccccc3)C(=O)O)c2c1-c1cccc2[nH]ccc12` [Example 73, N-[6-ethyl-(5Sa)-5-(1H-indol-4-yl)thieno[2,3-d]pyrimidin-4-yl]-D-phenylalanine], for which the IC50 was 0.276 µM. As to `CCc1sc2ncnc(NC(Cc3ccccc3)C(=O)O)c2c1-c1cccc2ccn(C)c12` [Example 83, N-[6-ethyl-(5Sa)-5-(1-methyl-1H-indol-7-yl)thieno[2,3-d]pyrimidin-4-yl]-D-phenylalanine], the IC50 is 0.258 µM.

Consider `CCc1sc2ncnc(NC(Cc3ccccc3)C(=O)O)c2c1-c1ccc(OCCN2CCOCC2)c(Cl)c1C` [Example 61, N-((5Sa)-5-{3-chloro-2-methyl-4-[2-(morpholin-4-yl)ethoxy]phenyl}-6-ethylthieno[2,3-d]pyrimidin-4-yl)-D-phenylalanine], for which the IC50 was 0.036 µM. With `CCc1sc2ncnc(NC(Cc3ccccc3)C(=O)O)c2c1-c1cc(Cl)c(OCCN2CCN(C)CC2)c(Cl)c1C` [Example 55, N-((5Ra)-5-{3,5-dichloro-2-methyl-4-[2-(4-methylpiperazin-1-yl)ethoxy]phenyl}-6-ethylthieno[2,3-d]pyrimidin-4-yl)-D-phenylalanine], the IC50 came out at 8.84 µM.

As for `C=C(C)c1sc2ncnc(NC(Cc3ccccc3)C(=O)O)c2c1-c1cccc2ccccc12` [Example 106, N-[(5Sa)-5-(naphthalen-1-yl)-6-(prop-1-en-2-yl)thieno[2,3-d]pyrimidin-4-yl]-D-phenylalanine], the IC50 stood at 0.065 µM.

As for `CCc1sc2ncnc(N[C@H](Cc3ccccc3)C(=O)O)c2c1-c1cccc2[nH]ncc12` [Example 98, N-[6-ethyl-5-(1H-indazol-4-yl)thieno[2,3-d]pyrimidin-4-yl]-D-phenylalanine], the IC50 is 2.87 µM. Consider `O=C(O)[C@@H](Cc1ccccc1)Nc1ncnc2sc(C(F)F)c(-c3cccc4ccccc34)c12` (single isomer, unassigned) [Example 208, N-[6-(difluoromethyl)-5-(naphthalen-1-yl)thieno[2,3-d]pyrimidin-4-yl]-D-phenylalanine], for which the IC50 is 0.632 µM.

Still in this assay, the particulars now being: partial inhibitors; @ 10 μM test compound.
As to `CC#Cc1sc2ncnc(N[C@H](Cc3ccccc3OCc3ccnn3C(C)(C)C)C(=O)OCC)c2c1-c1ccc(OCCN2CCN(C)CC2)c(Cl)c1C` [Example 257, ethyl 2-[(1-tert-butyl-1H-pyrazol-5-yl)methoxy]-N-[(5Sa)-5-{3-chloro-2-methyl-4-[2-(4-methylpiperazin-1-yl)ethoxy]phenyl}-6-(prop-1-yn-1-yl)thieno[2,3-d]pyrimidin-4-yl]-D-phenylalaninate], the “percentage fluorescence polarisation inhibition, Mcl-1 FP” value is reported as 57.15% @ 10 μM.

The same assay, now with this note: partial inhibitors; @ 50 μM test compound.
Consider `CCc1sc2ncnc(N[C@H](Cc3ccccc3)C(=O)O)c2c1-c1cccc2c1c(Cl)cn2CCN1CCCC1` [Example 232, N-((5Ra)-5-{3-chloro-1-[2-(pyrrolidin-1-yl)ethyl]-1H-indol-4-yl}-6-ethyl-thieno[2,3-d]pyrimidin-4-yl)-D-phenylalanine], for which the “percentage fluorescence polarisation inhibition, Mcl-1 FP” value was 62.2% @ 50 μM. `CCc1sc2ncnc(N[C@H](Cc3ccccc3C(F)(F)F)C(=O)O)c2c1-c1cccc(Cl)c1C` [Example 137, N-[(5Ra)-5-(3-chloro-2-methylphenyl)-6-ethylthieno[2,3-d]pyrimidin-4-yl]-2-(trifluoromethyl)-D-phenylalanine]: the “percentage fluorescence polarisation inhibition, Mcl-1 FP” value amounted to 71.05% @ 50 μM. In the case of `CCc1sc2ncnc(N[C@H](Cc3ccccc3OCCN3CCN(C)CC3)C(=O)O)c2c1-c1cccc(Cl)c1C` [Example 153, N-[(5Ra)-5-(3-chloro-2-methylphenyl)-6-ethylthieno[2,3-d]pyrimidin-4-yl]-2-[2-(4-methylpiperazin-1-yl)ethoxy]-D-phenylalanine], the “percentage fluorescence polarisation inhibition, Mcl-1 FP” value is listed as 75.7% @ 50 μM.

On to `COc1ccccc1C[C@@H](Nc1ncnc2sc(C(C)C)c(-c3cccc(Cl)c3C)c12)C(=O)O` [Example 222, N-[(5Ra)-5-(3-chloro-2-methylphenyl)-6-(propan-2-yl)thieno[2,3-d]pyrimidin-4-yl]-2-methoxy-D-phenylalanine], for which the “percentage fluorescence polarisation inhibition, Mcl-1 FP” value amounted to 70% @ 50 μM.

On to `CCc1sc2ncnc(N[C@H](Cc3ccccc3)C(=O)O)c2c1-c1cccc2c1c(Cl)cn2CCN(C)C` [Example 231, N-((5Ra)-5-{3-chloro-1-[2-(dimethylamino)ethyl]-1H-indol-4-yl}-6-ethyl-thieno[2,3-d]pyrimidin-4-yl)-D-phenylalanine], for which the “percentage fluorescence polarisation inhibition, Mcl-1 FP” value is on record as 56.75% @ 50 μM. In the case of `CCc1sc2ncnc(N[C@H](Cc3c(F)cccc3F)C(=O)O)c2c1-c1cccc(Cl)c1C` [Example 130, N-[(5Ra)-5-(3-chloro-2-methylphenyl)-6-ethylthieno[2,3-d]pyrimidin-4-yl]-2,6-difluoro-D-phenylalanine], the “percentage fluorescence polarisation inhibition, Mcl-1 FP” value is reported as 67.4% @ 50 μM.

For `CCc1sc2ncnc(N[C@H](Cc3ccccc3[N+](=O)[O-])C(=O)O)c2c1-c1cccc(Cl)c1C` [Example 135, N-[(5Ra)-5-(3-chloro-2-methylphenyl)-6-ethylthieno[2,3-d]pyrimidin-4-yl]-2-nitro-D-phenylalanine], the “percentage fluorescence polarisation inhibition, Mcl-1 FP” value is reported as 75.25% @ 50 μM.

Staying with this assay, now noted: partial inhibitors; @ 100 μM test compound; 100 µM.
With `CC(O)c1sc2ncnc(N[C@H](Cc3ccccc3)C(=O)O)c2c1-c1cccc2ccccc12` (single isomer, unassigned) [Example 203, N-[6-(1-hydroxyethyl)-5-(naphthalen-1-yl)thieno[2,3-d]pyrimidin-4-yl]-D-phenylalanine], the “percentage fluorescence polarisation inhibition, Mcl-1 FP” value came to 71.85% @ 100 μM.

The same assay, now with this note: partial inhibitors; @ 200 μM test compound.
On to `CCc1sc2ncnc(N[C@H](Cc3c[nH]c4ccccc34)C(=O)O)c2c1-c1cccc2ccccc12` [Example 184, N-[6-ethyl-(5Ra)-5-(naphthalen-1-yl)thieno[2,3-d]pyrimidin-4-yl]-D-tryptophan], for which the “percentage fluorescence polarisation inhibition, Mcl-1 FP” value stood at 76.8% @ 200 μM. As to `CCc1sc2ncnc(N[C@H](Cc3ccccc3)C(=O)O)c2c1-c1ccnc(Cl)c1C` [Example 77, N-[(5Ra)-5-(2-chloro-3-methylpyridin-4-yl)-6-ethylthieno[2,3-d]pyrimidin-4-yl]-D-phenylalanine], the “percentage fluorescence polarisation inhibition, Mcl-1 FP” value amounted to 75.45% @ 200 μM. For `CCc1sc2ncnc(N[C@H](Cc3ccccc3)C(=O)O)c2c1-c1cccc2cnn(C)c12` [Example 89, N-[6-ethyl-(5Ra)-5-(1-methyl-1H-indazol-7-yl)thieno[2,3-d]pyrimidin-4-yl]-D-phenylalanine], the “percentage fluorescence polarisation inhibition, Mcl-1 FP” value was 72.13% @ 200 μM.

As usually defined, the IC50 is the concentration needed to halve the response being measured.
